Experimental data: ChEMBL document CHEMBL3045199, “Synthesis of some (E)-6-[2-(furan-2-yl)ethenyl]-1,2,4-triazin-5-ones and their biological evaluation as antitumor agents” (2013)

Assays:
Assay type in all cases: functional
[1] = tested on: K562; assay: Cytotoxicity against Homo sapiens (human) K562 cells assessed as growth inhibition at 10 uM after 24 hr; details: K562, 24 h, read-out: GI
[2] = Cytotoxicity against Homo sapiens (human) NCI-ADR-RES cells assessed as growth inhibition at 10 uM after 24 hr; details: read-out: GI
[3] = tested on: SF-539; assay: Cytotoxicity against Homo sapiens (human) SF539 cells after 48 hr by SRB assay; details: SF-539, 48 h
[4] = tested on: ACHN; assay: Cytotoxicity against Homo sapiens (human) ACHN cells after 48 hr by SRB assay
[5] = tested on: LOX IMVI; assay: Cytotoxicity against Homo sapiens (human) LOXIMVI cells after 48 hr by SRB assay
[6] = tested on: RXF 393; assay: Cytotoxicity against Homo sapiens (human) RXF393 cells after 48 hr by SRB assay; details: RXF 393, 48 h
[7] = tested on: HCT-116; assay: Cytotoxicity against Homo sapiens (human) HCT116 cells after 48 hr by SRB assay; details: HCT-116, 48 h
[8] = tested on: OVCAR-5; assay: Cytotoxicity against Homo sapiens (human) OVCAR5 cells after 48 hr by SRB assay; details: OVCAR-5, 48 h
[9] = tested on: BT-549; assay: Cytotoxicity against Homo sapiens (human) BT549 cells after 48 hr by SRB assay; details: BT-549, 48 h
[10] = tested on: MOLT-4; assay: Cytotoxicity against Homo sapiens (human) MOLT4 cells after 48 hr by SRB assay; details: MOLT-4, 48 h
[11] = tested on: M14; assay: Cytotoxicity against Homo sapiens (human) M14 cells after 48 hr by SRB assay; details: M14, 48 h
[12] = tested on: HL-60(TB); assay: Cytotoxicity against Homo sapiens (human) HL-60(TB) cells after 48 hr by SRB assay; details: HL-60, 48 h
[13] = tested on: Malme-3M; assay: Cytotoxicity against Homo sapiens (human) MALME-3M cells after 48 hr by SRB assay
[14] = tested on: KM12; assay: Cytotoxicity against Homo sapiens (human) KM12 cells after 48 hr by SRB assay; details: KM12, 48 h
[15] = tested on: TK-10; assay: Cytotoxicity against Homo sapiens (human) TK10 cells assessed as growth inhibition at 10 uM after 24 hr; details: TK-10, 24 h, read-out: GI
[16] = tested on: NCI-H322M; assay: Cytotoxicity against Homo sapiens (human) NCI-H322M cells after 48 hr by SRB assay
[17] = tested on: OVCAR-3; assay: Cytotoxicity against Homo sapiens (human) OVCAR3 cells assessed as growth inhibition at 10 uM after 24 hr; details: OVCAR-3, 24 h, read-out: GI
[18] = tested on: MDA-MB-231; assay: Cytotoxicity against Homo sapiens (human) MDA-MB-231 cells after 48 hr by SRB assay; details: MDA-MB-231, 48 h
[19] = tested on: A498; assay: Cytotoxicity against Homo sapiens (human) A498 cells after 48 hr by SRB assay; details: A498, 48 h
[20] = tested on: SK-MEL-5; assay: Cytotoxicity against Homo sapiens (human) SK-MEL-5 cells after 48 hr by SRB assay; details: SK-MEL-5, 48 h
[21] = tested on: HT-29; assay: Cytotoxicity against Homo sapiens (human) HT-29 cells assessed as growth inhibition at 10 uM after 24 hr; details: HT-29, 24 h, read-out: GI
[22] = tested on: SF-268; assay: Cytotoxicity against Homo sapiens (human) SF268 cells assessed as growth inhibition at 10 uM after 24 hr; details: SF-268, 24 h, read-out: GI
[23] = tested on: NCI-H226; assay: Cytotoxicity against Homo sapiens (human) NCI-H226 cells assessed as growth inhibition at 10 uM after 24 hr; details: NCI-H226, 24 h, read-out: GI
[24] = tested on: MOLT-4; assay: Cytotoxicity against Homo sapiens (human) MOLT4 cells assessed as growth inhibition at 10 uM after 24 hr; details: MOLT-4, 24 h, read-out: GI
[25] = tested on: HOP-62; assay: Cytotoxicity against Homo sapiens (human) HOP62 cells after 48 hr by SRB assay; details: HOP-62, 48 h
[26] = tested on: HOP-92; assay: Cytotoxicity against Homo sapiens (human) HOP92 cells after 48 hr by SRB assay; details: HOP-92, 48 h
[27] = Cytotoxicity against Homo sapiens (human) ovarian cancer cells after 48 hr by SRB assay; details: Cancer cell lines
[28] = tested on: EKVX; assay: Cytotoxicity against Homo sapiens (human) EKVX cells assessed as growth inhibition at 10 uM after 24 hr; details: read-out: GI
[29] = tested on: HT-29; assay: Cytotoxicity against Homo sapiens (human) HT-29 cells after 48 hr by SRB assay; details: HT-29, 48 h
[30] = tested on: SK-OV-3; assay: Cytotoxicity against Homo sapiens (human) SKOV3 cells assessed as growth inhibition at 10 uM after 24 hr; details: SK-OV-3, 24 h, read-out: GI
[31] = tested on: UACC-62; assay: Cytotoxicity against Homo sapiens (human) UACC62 cells after 48 hr by SRB assay; details: UACC-62, 48 h
[32] = Cytotoxicity against Homo sapiens (human) leukemia cells after 48 hr by SRB assay; details: Leukemia cell
[33] = tested on: OVCAR-4; assay: Cytotoxicity against Homo sapiens (human) OVCAR4 cells after 48 hr by SRB assay; details: OVCAR-4, 48 h
[34] = tested on: CCRF-CEM; assay: Cytotoxicity against Homo sapiens (human) CCRF-CEM cells assessed as growth inhibition at 10 uM after 24 hr; details: read-out: GI
[35] = tested on: SNB-19; assay: Cytotoxicity against Homo sapiens (human) SNB19 cells assessed as growth inhibition at 10 uM after 24 hr; details: SNB-19, 24 h, read-out: GI
[36] = tested on: DU-145; assay: Cytotoxicity against Homo sapiens (human) DU145 cells after 48 hr by SRB assay; details: DU-145, 48 h
[37] = read-out: LC50 (the source's name)

SMILES: Nc1cc(-c2ccc(Cl)cc2)nn1-c1nc(=O)c(/C=C/c2ccco2)n[nH]1
- inhibition of growth at 10 µM [1]: 58.3%
- inhibition of growth at 10 µM [2]: 94.3%
- TGI [3]: 26.1 µM
- GI50 ([3]; read-out: GI50): 5.49 µM
- CC50 [3, 37]: > 100 µM
- GI50 ([3]; read-out: pGI50 (converted)): 5.5 µM
- LC50 [4]: > 100 µM
- TGI [4]: 24.8 µM
- GI50 ([4]; read-out: GI50): 3.8 µM
- GI50 ([4]; read-out: pGI50 (converted)): 3.8 µM
- TGI [5]: 73.4 µM
- GI50 ([5]; read-out: GI50): 6.69 µM
- CC50 [5, 37]: > 100 µM
- GI50 ([5]; read-out: pGI50 (converted)): 6.76 µM
- LC50 [6]: > 100 µM
- TGI [6]: 54.9 µM
- GI50 ([6]; read-out: GI50): 13.1 µM
- GI50 ([6]; read-out: pGI50 (converted)): 13.2 µM
- TGI [7]: 15.6 µM
- GI50 ([7]; read-out: GI50): 2.92 µM
- CC50 [7, 37]: > 100 µM
- GI50 ([7]; read-out: pGI50 (converted)): 2.88 µM
- LC50 (50% lethal concentration) [8]: > 100 µM
- TGI [8]: 82 µM
- GI50 ([8]; read-out: GI50): 5.49 µM
- GI50 ([8]; read-out: pGI50 (converted)): 5.5 µM
- TGI [9]: 43.8 µM
- GI50 ([9]; read-out: GI50): 4.42 µM
- CC50 [9, 37]: > 100 µM
- GI50 ([9]; read-out: pGI50 (converted)): 4.47 µM
- TGI [10]: 18.5 µM
- GI50 ([10]; read-out: GI50): 2.01 µM
- CC50 [10, 37]: > 100 µM
- GI50 ([10]; read-out: pGI50 (converted)): 2 µM
- LC50 [11]: > 100 µM
- TGI [11]: 31.7 µM
- GI50 ([11]; read-out: GI50): 2.27 µM
- GI50 ([11]; read-out: pGI50 (converted)): 2.29 µM
- LC50 [12]: > 100 µM
- TGI [12]: 8.19 µM
- GI50 ([12]; read-out: GI50): 2.83 µM
- GI50 ([12]; read-out: pGI50 (converted)): 2.82 µM
- LC50 [13]: > 100 µM
- TGI [13]: 53.1 µM
- GI50 ([13]; read-out: GI50): 11 µM
- GI50 ([13]; read-out: pGI50 (converted)): 11 µM
- TGI [14]: 32 µM
- GI50 ([14]; read-out: GI50): 3.19 µM
- CC50 [14, 37]: > 100 µM
- GI50 ([14]; read-out: pGI50 (converted)): 3.16 µM
- inhibition of growth at 10 µM [15]: 48.8%
- TGI [16]: 38.2 µM
- GI50 ([16]; read-out: GI50): 1.47 µM
- CC50 [16, 37]: > 100 µM
- GI50 ([16]; read-out: pGI50 (converted)): 1.48 µM
- inhibition of growth at 10 µM [17]: 62.1%
- LC50 (lethal concentration, 50%) [18]: > 100 µM
- TGI [18]: > 100 µM
- GI50 ([18]; read-out: GI50): 13.9 µM
- GI50 ([18]; read-out: pGI50 (converted)): 13.8 µM
- LC50 [19]: > 100 µM
- TGI [19]: 6.62 µM
- GI50 ([19]; read-out: GI50): 1.62 µM
- GI50 ([19]; read-out: pGI50 (converted)): 1.62 µM
- TGI [20]: 24.8 µM
- GI50 ([20]; read-out: GI50): 3.83 µM
- CC50 [20, 37]: > 100 µM
- GI50 ([20]; read-out: pGI50 (converted)): 3.8 µM
- inhibition of growth at 10 µM [21]: 55.8%
- inhibition of growth at 10 µM [22]: 47.5%
- inhibition of growth at 10 µM [23]: 52.6%
- inhibition of growth at 10 µM [24]: 55.6%
- LC50 (concentration killing 50% of cells) [25]: > 100 µM
- TGI [25]: 76.8 µM
- GI50 ([25]; read-out: GI50): 5.77 µM
- GI50 ([25]; read-out: pGI50 (converted)): 5.75 µM
- LC50 [26]: > 100 µM
- TGI [26]: 9.28 µM
- GI50 ([26]; read-out: GI50): 1.61 µM
- GI50 ([26]; read-out: pGI50 (converted)): 1.62 µM
- GI50 [27]: 3.8 µM
- TGI [27]: 43.1 µM
- CC50 [27, 37]: 89.7 µM
- inhibition of growth at 10 µM [28]: 58.3%
- TGI [29]: > 100 µM
- GI50 ([29]; read-out: GI50): 7.82 µM
- CC50 [29, 37]: > 100 µM
- GI50 ([29]; read-out: pGI50 (converted)): 7.76 µM
- inhibition of growth at 10 µM [30]: 39.3%
- LC50 (concentration killing 50% of cells) [31]: > 100 µM
- TGI [31]: > 100 µM
- GI50 ([31]; read-out: GI50): 5.07 µM
- GI50 ([31]; read-out: pGI50 (converted)): 5.01 µM
- GI50 [32]: 2.71 µM
- TGI [32]: 17.9 µM
- CC50 [32, 37]: > 100 µM
- LC50 [33]: > 100 µM
- TGI [33]: 28.8 µM
- GI50 ([33]; read-out: GI50): 3.45 µM
- GI50 ([33]; read-out: pGI50 (converted)): 3.47 µM
- inhibition of growth at 10 µM [34]: 66.1%
- inhibition of growth at 10 µM [35]: 42.4%
- LC50 [36]: 55.4 µM
- TGI [36]: 18.3 µM
- GI50 ([36]; read-out: GI50): 3.01 µM
- GI50 ([36]; read-out: pGI50 (converted)): 3.02 µM

SMILES: O=c1[nH]cc(F)c(=O)[nH]1 [FLUOROURACIL]
- GI50 ([3]; read-out: pGI50 (converted)): 1.26 µM
- GI50 ([4]; read-out: pGI50 (converted)): 10 µM
- GI50 ([5]; read-out: pGI50 (converted)): 6.31 µM
- GI50 ([6]; read-out: pGI50 (converted)): 50.1 µM
- GI50 ([7]; read-out: pGI50 (converted)): 3.98 µM
- GI50 ([8]; read-out: pGI50 (converted)): 158 µM
- GI50 ([9]; read-out: pGI50 (converted)): 100 µM
- GI50 ([10]; read-out: pGI50 (converted)): 12.6 µM
- GI50 ([11]; read-out: pGI50 (converted)): 50.1 µM
- GI50 ([12]; read-out: pGI50 (converted)): 20 µM
- GI50 ([13]; read-out: pGI50 (converted)): 20 µM
- GI50 ([14]; read-out: pGI50 (converted)): 10 µM
- GI50 ([16]; read-out: pGI50 (converted)): 20 µM
- GI50 ([18]; read-out: pGI50 (converted)): 501 µM
- GI50 ([19]; read-out: pGI50 (converted)): 10 µM
- GI50 ([20]; read-out: pGI50 (converted)): 12.6 µM
- GI50 ([25]; read-out: pGI50 (converted)): 20 µM
- GI50 ([26]; read-out: pGI50 (converted)): 158 µM
- GI50 ([29]; read-out: pGI50 (converted)): 6.31 µM
- GI50 ([31]; read-out: pGI50 (converted)): 12.6 µM
- GI50 ([33]; read-out: pGI50 (converted)): 63.1 µM
- GI50 ([36]; read-out: pGI50 (converted)): 10 µM
